Results as given in patent publication US12060432B2, “Combination therapies with anti-CD38 antibodies” (Janssen Biotech, Inc., priority 2014, dated 2024).

What was measured:
[1] = test system: ST1361 NHL-DLBCL (diffuse large B-cell lymphoma) PDX (patient derived xenograft) model; assay: Patient-derived DLBCL xenograft ST1361: daratumumab alone or with CHOP or R-CHOP; assay type: in vivo, SCID/Beige mice; conditions: for % TGI (percent tumor growth inhibition): up to day 31, versus isotype control
Experimental: Resected DLBCL tumors were implanted in SCID/Beige mice. […] Daratumumab was administered at 20 mg/kg once a week for three weeks. CHOP and R-CHOP were administered once on day 0 except prednisone was administered on days 0-4 using the following regimens: CHOP: (cyclophosphoamide (CTX): 30 mg/kg i.v.; doxorubicin: 2.5 mg/kg i.v; vincristine: 0.4 mg/kg i.v); prednisone: 0.15 mg/kg p.o; R-CHOP: rituximab 20 mg/kg i.p. DAY 0. Tumor volume was measured every three days. The Y-axis represents tumor volume±SEM.
ST1361 is a NHL-DLBCL (diffuse large B-cell lymphoma) PDX (patient derived xenograft) model originating from a person chemo-naïve prior to metastatic sample collection.
Tumors were implanted in immunocompromised mice between 5-8 weeks of age. […] Daratumumab was dosed at 20 mg/kg once a week for 3 weeks. CHOP and R-CHOP at the concentrations described below were dosed once on day 0. CHOP (cyclophosphoamide: 30 mg/kg; doxorubicin: 2.5 mg/kg; vincristine: 0.4 mg/kg)-IV DAY 0; prednisone: 0.15 mg/kg DAYS 0-4; R-CHOP: rituximab 20 mg/kg-IP DAY 0. Beginning Day 0, tumor volume was measured twice weekly by digital caliper and data including individual and mean estimated tumor volumes (Mean TV±SEM) recorded for each group. The study was used to measure tumor growth inhibition until the control group was terminated and then continued as a survival study to evaluate the duration of daratumumab efficacy.
For the study, beginning Day 0, tumor dimensions were measured twice weekly by digital caliper and data including individual and mean estimated tumor volumes (mean TV±SEM) recorded for each group.

NAMALWA cells = assay: NAMALWA model of Burkitt's lymphoma: daratumumab alone or with CHOP; assay type: in vivo, NOD SCID mice
Experimental: (§1) 2×10^5 NAMALWA cells in matrigel were implanted into NOD SCID mice and treatment initiated when the main tumor size reached approximately 189 mm^3. Daratumumab was administered at 10 mg/kg once a week for three weeks. CHOP was administered daily on days 0-5 using following doses: cyclophosphoamide (CTX): 5 mg/kg i.v.; doxorubicin: 0.5 mg/kg i.v; vincristine: 0.08 mg/kg i.v., prednisone: 0.03 mg/kg p.o. Tumor volume was measured every three days. The Y-axis represents tumor volume±SEM
As a model for Burkitt's lymphoma, NAMALWA cells were utilized to study the efficacy of daratumumab alone or in combination with CHOP.
Namalwa cells were maintained in vitro in RPMI 1640 medium supplemented with fetal bovine serum (10% v/v), and L-glutamine (2 mM) at 37° C. in an atmosphere of 5% CO2 in air. The cells were routinely subcultured twice weekly by trypsin-EDTA treatment. The cells growing in an exponential growth phase were harvested and counted for tumor inoculation. The mice were injected with 2×10^5 Namalwa cells in 0.1 ml of PBS with matrigel (1:1) subcutaneously and the treatments were started when the mean tumor size reached 189 mm^3. The date of tumor cell inoculation is denoted as day 0. The major endpoint was to see if the tumor growth can be delayed or tumor-bearing mice can be cured. Tumor sizes were measured twice weekly and % TGI values calculated as described in Example 1.
Animals were divided in four treatment groups and were administered vehicle (isotype control), daratumumab, CHOP or daratumumab in combination with CHOP at dosages as described in Table 2.

SU-DHL-6 cells = assay: SU-DHL-6 cell line based NHL-DLBCL model: daratumumab alone or with CHOP; assay type: in vivo, NOD SCID mice
Experimental: as §1, with “5×10^6 SU-DHL-6” for “2×10^5 NAMALWA”, “cells” for “cells in matrigel”, “154” for “189”, “four” for “three”, “size” for “volume”, “plotted as Mean±SEM.” for “measured every three days. The Y-axis represents tumor volume±SEM”
SU-DHL-6 cell line based NHL-DLBCL model was utilized to study the efficacy of daratumumab alone or in combination with CHOP.
The SU-DHL-6 cells were maintained separately in vitro in RPMI1640 medium supplemented with 20% fetal bovine serum (v/v) at 37° C. in an atmosphere of 5% CO2 in air. The cells were routinely subcultured twice weekly. The cells growing in an exponential growth phase were harvested and counted for tumor inoculation. NOD SCID mice were γ-irradiated (200 rads) at 24 h before injection. Each mouse was inoculated subcutaneously at the right flank with SU-DHL-6 tumor cells (5×10^6) in 0.1 ml of PBS with matrigel (1:1) for tumor development. The treatments were started when the tumor size reaches approximately 154 mm^3. The date of tumor cell inoculation is denoted as day 0. Tumor sizes were measured twice weekly and % TGI values calculated as described in Example 1.
Animals were divided in four treatment groups and were administered vehicle, daratumumab, CHOP or daratumumab in combination with CHOP at dosages as described in Table 3.

Substance: Daratumumab: anti-CD38 antibody, IgG1/κ; VH SEQ ID NO: 4, VL SEQ ID NO: 5; heavy chain SEQ ID NO: 12, light chain SEQ ID NO: 13
- Mean tumor volume (mm^3) ± SEM ([1]; day 31, daratumumab 20 mg/kg once a week for 3 weeks, CHOP/R-CHOP once on day 0, prednisone days 0-4, day 0 volume 145-146 mm^3): 744 ± 236 mm^3
- % TGI (percent tumor growth inhibition) [1]: 71%
- % TGI (percent tumor growth inhibition) ([1]; listed as daratumumab): ~71%
- Tumor growth delay (NAMALWA cells; at tumor size of 2,303 mm^3): 2 days
- T/C value (NAMALWA cells; day 26 post tumor inoculation): 70.46%
- Antitumor activity in tumor size (NAMALWA cells; day 26 post tumor inoculation, versus vehicle): significant antitumor activity
- Mean tumor size (NAMALWA cells; day 26 post tumor inoculation, daratumumab 10 mg/kg QW x 3, CHOP QD x 5): 3,017 mm^3
- Tumor growth delay (SU-DHL-6 cells; at tumor size of 1,500 mm^3): 3 days
- T/C value (SU-DHL-6 cells; day 32 post tumor inoculation): 45.45%
- Antitumor activity in tumor size (SU-DHL-6 cells; day 32 post tumor inoculation, versus vehicle): significant antitumor activity
- Mean tumor size (SU-DHL-6 cells; day 32 post tumor inoculation, daratumumab 10 mg/kg QW x 4, CHOP QD x 5): 1,946 mm^3
